These results are taken from patent US8314077B2 (priority 1996, dated 2012).

Data set [1] concerns leukemia cancer cell lines. In kind it is cell-based. Conditions: six lines for the conjugates, four lines for Taxol; FIGS. 1, 10 and 19. On the procedure: (§1) Conjugates 1 and 2 were sent to the United States National Cancer Institute (NCI) for screening in the NCI's anticancer screening program. The conjugates were provided in ethanol (approximately 40 mg analog/2 ml ethanol). […] Instructions were provided to store at 4° C. and to open the vials only when ready for immediate experimental use. Instructions also were provided to use the ethanol solutions containing the conjugates directly or to dissolve the analogs further in DMSO (dimethylsulfoxide) at appropriate concentrations, with vortexing if necessary for adequate dispersal.
(§2) The activities of conjugates 1 and 2 were tested against 57 cancer cell lines. […] To understand the data, reference is made to the guides provided by the NCI, excerpted as follows:
(§3) The Calculated Measurement of Effect: Percentage Growth (PG)
(§4) The measured effect of the compound on a cell line is currently calculated according to one or the other of the following two expressions:
(§5) If (Mean ODtext−Mean ODtzero)≧0, then PG=100×(Mean ODtest−Mean ODtzero)/(Mean ODctrl−Mean Odtzero)
(§6) If (Mean ODtest−Mean ODtzero)<0, then PG=100×(Mean ODtest−Mean Odtzero)/Mean Odtzero
(§7) Where: • Mean ODtzero=The average of optical density measurements of SRB-derived color just before exposure of cells to the test compound. • Mean ODtest=The average of optical density measurements of SRB-derived color after 48 hours exposure of cells to the test compound. • Mean ODctrl=The average of optical density measurements of SRB-derived color after 48 hours with no exposure of cells to the test compound.
(§8) Experimental data was collected against each cell line. . . . . Each concentration is expressed as the log10 (molar or μg/ml) . . . . The response parameters GI50, TGI, and LC50 are interpolated values representing the concentrations at which the PG is +50, 0, and −50, respectively. Sometimes these response parameters cannot be obtained by interpolation. If, for instance, all of the PGs in a given row exceed +50, then none of the three parameters can be obtained by interpolation. In such a case, the value given for each response parameter is the highest concentration tested. This practice is extended similarly to the other possible situations where a response parameter cannot be obtained by interpolation.
(§9) The dose-response curve page of the data package is created by plotting the PGs against the log10 of the corresponding concentration for every cell line. The cell line curves are grouped by subpanel. Horizontal lines are provided at the PG values of +50, 0, and −50. The concentrations corresponding to points where the curves cross these lines are the GI50, TGI and LC50, respectively.

The test system of data set [2] is non-small cell lung cancer lines H522 and H460. It is filed as cell-based. As to the method:
as §1, §2, §3, §4, §5, §6, §7, §8, §9

A further data set deals with CNS SF-539. In words: cells. The note with it: for TGI: concentration at which PG is 0, CNS SF-539. In kind it is cell-based. As to the method:
as §1, §2, §3, §4, §5, §6, §7, §8, §9

The test system of a further data set is CNSSF 268. Description: cells. In kind it is cell-based. On the procedure:
as §1, §2, §3, §4, §5, §6, §7, §8, §9

A further data set has as its system 57 cancer cell lines. It is filed as cell-based. The note with it: for potency relative to Taxol: many cell lines tested; for pattern of activity versus Taxol (NCI statistical analysis): statistical analysis designed by the NCI. On the procedure: Conjugates 1 and 2 were sent to the United States National Cancer Institute (NCI) for screening in the NCI's anticancer screening program. The conjugates were provided in ethanol (approximately 40 mg analog/2 ml ethanol). The conjugates were sealed in vials under argon to avoid exposure of the conjugates to oxygen because the conjugates were believed to be sensitive to oxygen. Instructions were provided to store at 4° C. and to open the vials only when ready for immediate experimental use. Instructions also were provided to use the ethanol solutions containing the conjugates directly or to dissolve the analogs further in DMSO (dimethylsulfoxide) at appropriate concentrations, with vortexing if necessary for adequate dispersal.
as §2, §3, §4, §5, §6, §7, §8, §9

The conditions of data set [3]: in vivo; cited from earlier work.
In the next data set the test system is CNSU251. In kind it is cell-based. As to the method: as §1, §2, §3, §4, §5, §6, §7, §8, §9
For data set [4], the system named is MDA-N and MDA-MB-435 breast cancer cell lines. It is filed as cell-based. Conditions: all concentrations tested. On the procedure: as §1, §2, §3, §4, §5, §6, §7, §8, §9

Read-outs that look alike come from different tables or passages of the source.

For `CC(=O)O[C@H]1C(=O)[C@@]2(C)[C@H]([C@H](OC(=O)c3ccccc3)[C@]3(O)C[C@H](OC(=O)[C@H](O)[C@@H](NC(=O)c4ccccc4)c4ccccc4)C(C)=C1C3(C)C)[C@]1(OC(C)=O)CO[C@@H]1C[C@@H]2O` [Taxol, paclitaxel, reference compound], the “effectiveness against leukemia cell lines” value in data set [1] is on record as “somewhat effective”. In addition, the “difference in effectiveness, H522 versus H460, at TGI” value in data set [2] is reported as “about 3 logs”. In the data set with CNS SF-539 (48 hours exposure), the TGI is reported as −6.95 log10 (molar or μg/ml). The GI50 with CNS SF-539 (concentration at which PG is +50, 48 hours exposure, CNS SF 539) is recorded as −7.52 log10 (molar or μg/ml); in the data set on CNSSF 268 (concentration at which PG is +50, 48 hours exposure, CNSSF 268), “less than −10.0 log10 (molar or μg/ml)”. Moreover, in the data set on 57 cancer cell lines (average over cell lines, −10 used where Taxol was active at −10.0), the “average GI50 across all cell lines tested” value was “at least −9.19 log10 (molar or μg/ml)”. Also, the “entry into the brain” value in data set [3] was “does not get into the brain”.
With `CC/C=C\C/C=C\C/C=C\C/C=C\C/C=C\C/C=C\CCC(=O)OC(C(=O)OC1C[C@@]2(O)[C@@H](OC(=O)c3ccccc3)[C@@H]3[C@]4(OC(C)=O)CO[C@@H]4C[C@H](O)[C@@]3(C)C(=O)[C@H](OC(C)=O)C(=C1C)C2(C)C)[C@@H](NC(=O)c1ccccc1)c1ccccc1` (stereo partly shown) [conjugate 1], in the data set on CNSU251, the “effectiveness at TGI against CNSU251 relative to other CNS cell lines” value is on record as “most effective”. In addition, in data set [1], the “effectiveness against leukemia cell lines” value is listed as “not very effective”. In addition, in data set [2], the “relative effectiveness against H460 versus H522 at TGI” value is on record as “slightly more effective against H460 than H522”. Besides, the “relative activity toward MDA-N versus MDA-MB-435” value in data set [4] is recorded as “more effective against MDA-N than MDA-MB-435”. For the same molecule, the GI50 was 603 nM in the data set with CNS SF-539 (CNSSF-539, concentration at which PG is +50, 48 hours exposure, CNS SF 539, read-out: GI50 (converted)) and 4.37 µM with CNSSF 268 (concentration at which PG is +50, 48 hours exposure, CNSSF 268, read-out: GI50 (converted)). In addition, the TGI with CNS SF-539 (48 hours exposure) is −5.13 log10 (molar or μg/ml). For the same molecule, in the data set with 57 cancer cell lines, the “potency relative to Taxol” value is given as “one thousand to ten thousand times less potent than Taxol”. Besides, the “pattern of activity versus Taxol (NCI statistical analysis)” value with 57 cancer cell lines is listed as “statistically different”.
For `CC/C=C\C/C=C\C/C=C\C/C=C\C/C=C\C/C=C\CCC(=O)O[C@H]1C[C@H]2OC[C@@]2(OC(C)=O)[C@H]2[C@H](OC(=O)c3ccccc3)[C@]3(O)CC(OC(=O)C(O)[C@@H](NC(=O)c4ccccc4)c4ccccc4)C(C)=C([C@@H](OC(C)=O)C(=O)[C@]12C)C3(C)C` (stereo partly shown) [conjugate 2], the “effectiveness at TGI against CNSU251 relative to other CNS cell lines” value in the data set with CNSU251 is on record as “very effective”. Besides, the “effectiveness against leukemia cell lines” value in data set [1] was “not very effective”. The “relative effectiveness against H460 versus H522 at TGI” value in data set [2] is reported as “slightly more effective against H460 than H522”. For the same molecule, the “relative activity toward MDA-N versus MDA-MB-435” value in data set [4] is recorded as “more effective against MDA-N than MDA-MB-435”. Also, the GI50 with CNS SF-539 (CNSSF-539, 48 h) is 2750 nM. Besides, in the data set with CNS SF-539 (48 hours exposure), the TGI is −5.53 log10 (molar or μg/ml). This molecule showed a GI50 in the data set on CNSSF 268 (48 h) of 5.25 µM. Further, in the data set on 57 cancer cell lines, the “potency relative to Taxol” value is given as “one thousand to ten thousand times less potent than Taxol” and the “pattern of activity versus Taxol (NCI statistical analysis)” value is “statistically different”.
